Assay results taken from a melting point compilation (Tetko et al.; mined from patent text by program, amines drawn as free bases though some values may be those of a salt).

melting point | SMILES
238 to 240 °C | CC(c1oc2ccccc2c(=O)c1-c1cccc(F)c1)n1nc(-c2cccc3c2oc2ccccc23)c2c(N)ncnc21 (configuration not stated)
115 to 116 °C | Clc1cccc(-c2nc3cccc(NCc4ccccn4)c3o2)c1
140 to 142 °C | COCCN1CCN(Cc2ccc3c(c2)-c2[nH]nc(-c4ccsc4)c2C3)CC1
75 to 78 °C | CC(C)(C)OCc1cc(Oc2ccc(C(F)(F)F)cc2Cl)ccc1[N+](=O)[O-]
115 to 117 °C | O=c1ccc(-c2c(-c3ccccc3)nn3ccccc23)nn1C1CCNCC1
52 to 53 °C | Cc1ccccc1C=CC(=O)OCCc1ccccc1
183 to 185 °C | CC(C)(C)C(C)(C)Nc1nc(NC(C)(C)C(C)(C)C)nc(N2CCNCC2)n1
172 to 173 °C | CC(C)Cc1ccc(C(C)C(=O)NCCCCn2cnc3c(N)nc4ccccc4c32)cc1 (configuration not stated)
119 to 120 °C | COCNC(=O)c1c(-c2ccc(Cl)cc2)nsc1-c1ccccc1
109 to 111 °C | CN(C)/C=C/C(=O)c1ccc(OCCCCN2C(=O)c3ccccc3C2=O)cc1
245 to 246 °C | O=C1Nc2ccc(-c3cccc([N+](=O)[O-])c3)cc2C2(CCCCC2)O1
85 to 87 °C | CCCCc1nn(-c2cc(N)ccc2Cl)c(=O)n1Cc1ccc(-c2cc(CCC)ccc2S(=O)(=O)NC(C)(C)C)cc1F
126 °C | CCOC(=O)N(N)C(=O)c1ccccc1O
161 °C | CCOC(=O)c1cn(CC)c2nc(N3CCN(CC)CC3)ncc2c1=O
141 to 143 °C | Cn1nc(-c2c(F)cccc2Cl)nc1C(O)c1ccc(Cl)cc1 (configuration not stated)
58 to 60 °C | O=C(N1CCOc2ccccc21)C(F)(F)F
165 to 168 °C | COc1ccc(C(C)(C)C)cc1C(=O)NCCc1ccc(OC)c(S(N)(=O)=O)c1

melting point | SMILES
164 °C | O=C(O)C[C@H](NC(=O)CNC(=O)c1csc(NC(=O)NCc2ccccn2)n1)C(=O)NCc1ccccn1
223 to 225 °C | Cc1c(SCCN2CCOCC2)ccnc1CSc1nc2ccccc2n1CC(=O)O
115 to 116 °C | N#Cc1c(Cl)c(Cl)n(CC#CI)c1-c1ccc(Cl)c(Cl)c1
124 to 130 °C | O=C(C[C@H](NC(=O)c1ccccc1)C(=O)O)c1ccc2oc3ccccc3c2c1
212 to 215 °C | O=C1Nc2ccccc2C12COc1ccc3c(c12)N(Cc1ncccc1C(F)(F)F)ON3 (configuration not stated)
121 to 125 °C | O=C(Nc1cccc(-c2ccnc3c(C(=O)c4cccs4)cnn23)c1)OCc1ccccn1
134 to 137 °C | CN1C(=O)CC[C@]2(C)c3ccc(-c4ccc(Cl)c(C(F)(F)F)c4)cc3CC[C@@H]12
200 to 203 °C | Nc1cc(Cl)c(Sc2cccc3cnccc23)cc1N
98 to 102 °C | CCCCCOC(=O)Nc1ccc(CN2C(=O)CCc3c(CC4SC(=O)NC4=O)ccc(OC)c32)cc1 (configuration not stated)
112 to 113 °C | COCOc1nn(-c2ccccc2)cc1/C=C/c1csc(C(C)(C)C)n1
229 °C | O=C(O)c1cc(Cl)c(Cl)c(-c2ccc(Cl)cc2)n1
237 to 238 °C | O=C(O)CCn1c(=O)n(CCCN2CCC(OC(c3ccccc3)c3ccccc3)CC2)c(=O)c2ccccc21
142 to 143 °C | CN(C)CCNC(=S)SC(C)(C)[C@H](NC(=O)c1ccc(Cl)cc1)C(=O)O
249 to 250 °C | CCCn1c(=O)c2c(nn3cc(-c4cccc(OC)c4)[nH]c23)n(Cc2ccccc2)c1=O
105 to 107 °C | CCOC(=O)/C(N)=C/C(=O)/C=C/c1ccc(Cl)cc1
163 to 164 °C | O=C1N(c2ccc(Br)cc2F)C(=S)C2CCCCC12O (configuration not stated)

SMILES | melting point
O=C1C=C(NC(=O)C(=O)c2cn(Cc3cccc(Cl)c3)c3ccccc23)CO1 | 268 to 270 °C
CC(C)(C)SC(=O)C=CC1C(C(=O)OC(C#N)c2ccc(F)c(Oc3ccccc3)c2)C1(C)C (configuration not stated) | 96 °C
CN(C)C(=O)Oc1cccc2c1CN(Nc1ccncc1)C2 | 183 to 185 °C
N#Cc1cc(=O)n(-c2c(Cl)cc(C(F)(F)F)cc2Cl)[nH]1 | 198 to 201 °C
